Experimental data as given in patent publication US20250011719A1, “NEW METHOD FOR IMPROVING QUALITY OF PLATELETS” (SHANGHAI SYNVIDA BIOTECHNOLOGY CO. LTD., priority 2021, published 2025).

Columns and labels:
[1] = system: human apheresis platelets; assay: Mitochondrial potential difference (JC1/TMRM flow cytometry) of stored apheresis platelets; assay type: cell-based
Protocol: (§1) An appropriate amount of apheresis platelets was added to a 50 ml centrifuge tube (the volume should not exceed 15 ml/tube). The mouth of the 50 ml centrifuge tube was covered and fixed with a clinical platelet storage bag as a gas-permeable membrane, placed on a horizontal shaker. The speed of the shaker was determined according to the volume inside the tube, ensuring the platelets were fully shaken and fully exposed to oxygen for respiration without touching the gas-permeable membrane.
9.1 Changes in platelet mitochondrial potential difference were detected by JC1 fluorescent dyes: A JC1 working solution was prepared according to conventional methods. Positive control platelets were treated with CCCP to reduce mitochondrial membrane potential, that is, the positive control. Sampled platelets were diluted to 10^8/ml. 25 μl of platelets was taken and added with 25 μl of JC1 working solution. After mixed and incubated at 37° C. in the dark for 30 minutes, a 200 μl of 1×JC1 staining buffer was added for detecting the fluorescence intensity on the machine. The relative ratio of red and green fluorescence was used to represent the ratio of mitochondrial depolarization.
The platelet sampling and dilution were as described above. 50 μl Tyrodes's Buffer and 0.1 μl TMRM stock solution were added to a 50 μl dilution solution, incubated at 37° C. in the dark for 30 minutes, with 500 μl Tyrodes's Buffer added for detection on the machine. The fluorescence intensity of TMRM will red shift according to the change of mitochondrial potential difference. The fluorescence intensity was used to represent the level of mitochondrial potential difference.

[2] = system: human apheresis platelets; assay: Platelet aggregation / responsiveness to agonists of stored apheresis platelets; assay type: cell-based
Protocol: as §1
By conventional methods, using a platelet aggregation instrument, 300 μl of 3×10^8 platelets/ml and the required […] were added to the aggregation tube and incubated at 37° C. for 3 minutes after gentle stirring. A baseline was established and the changes of an aggregation curve were observed within 5 minutes.

mouse platelets [3] = assay: Mouse ITP model (anti-CD42b antibody R300); assay type: in vivo, mice; details: intravenous, combination 1 μmol NMN, 10 μmol NAC, 8 nmol AMPKi, vs control group
Protocol: WT mice were intravenously injected with NMN, NAC, AMPK inhibitor, or NMN+NAC+AMPK inhibitor. After 30 minutes, basal platelet counts were first determined from complete blood counts using a HEMAVET automated hematology analyzer. Mouse platelets were cleared by intravenous injection of 2 μg anti-CD42b monoclonal antibody R300 (purchased from Emfret). Orbital blood was collected at different time points to monitor platelet clearance and recovery.
To evaluate the effects of NMN, NAC or AMPK inhibitor on platelet survival in ITP patients, an ITP mouse model was established by intravenous injection of a low dose of anti-CD42b antibody R300.

[4] = system: human apheresis platelets; assay: Mitochondrial reactive oxygen species (Mitosox) of stored apheresis platelets; assay type: cell-based; details: for mitochondrial reactive oxygen species levels: Dorsomorphin 2HCl 1 uM, 4 uM, AICAR 0.1 uM, 0.5 uM, 4th day of storage, vs control; for accumulation of intracellular reactive oxygen species: N-acetylcysteine 5 mM, Mesna 50 uM, glutathione 200 uM, 7th day of storage, vs control group
Protocol: as §1
Using the conventional method, 25 μl platelets were diluted in equal proportions, added with 0.1 μl Mitosox reagent (5 mM) and incubated in the dark at 37° C. for 30 minutes, with 200 μl buffer added to detect the fluorescence intensity; stained the adherent cells: after centrifugation at 600 g for 5 minutes to remove the supernatant, the cells were resuspended in 200 μl Mitosox working solution, incubated at 37° C. in the dark for 30 minutes, centrifuged at 600 g for 5 minutes, washed twice with PBS and added with 200 μl PBS for resuspending and detecting the cells.

[5] = system: human apheresis platelets; assay: Platelet apoptosis (Annexin V flow cytometry) of stored apheresis platelets; assay type: cell-based; details: for apoptosis ratio: Dorsomorphin 2HCl 1 uM, 4 uM, AICAR 0.1 uM, 0.5 uM, 4th day of storage, vs control; for apoptosis ratio of platelets: N-acetylcysteine 5 mM, Mesna 50 uM, glutathione 200 uM, 7th day of storage, vs control group
Protocol: as §1
Platelets were sampled according to conventional methods, then the concentration of platelets was diluted to 10^8/ml with Tyrodes's Buffer. 25 μl of platelets in the experimental group and control group were added to new EP tubes. Each tube was added with 5 μl of 10×Binding Buffer, 2 μl of FITC labeled Annexin V and 18 μl of Tyrodes's Buffer to a total of 50 μl in the reaction system. After incubating at room temperature in the dark for 15 minutes, 200 μl 1×Binding Buffer was added for detection on the machine, with a tube of unlabeled platelets as a negative control. The platelets labeled with Annexin V were detected within one hour after labeling and the FITC-positive cell population was the platelets in the process of apoptosis.

stored mouse platelets = assay: Transfusion of stored mouse PRP into WT mice; assay type: in vivo; details: mouse PRP stored in vitro 1 day with NMN 0.5 mM, NAC 5 mM, AMPKi 4 uM alone or combined; biotin-labeled, infused into WT mice; PBS control
Protocol: (§2) Blood was taken from the abdominal aorta of mice. Apyrase (in a final concentration of 1 U/ml) and PGE1 (in a final concentration of 0.1 μg/ml) that can inhibit platelet aggregation was then added with to the whole blood, mixed quickly and centrifuged (1050 rpm, room temperature, 10 minutes). After two centrifuges, the upper plasma of the experimental group was sucked out, discarded and the platelet precipitate at the bottom was retained. The plasma of wild-type mice was evenly distributed to the platelet pellets of mice in the experimental group and wild-type group. The platelets were uniformly dispersed and suspended, and then preserved according to the method of human platelets.
In platelet transfusions, it is undesirable for stored platelets to be rapidly cleared from circulation. To evaluate the effects of the above compounds on the quality of platelets stored in vivo, two mouse transfusion models were used. In the first model, stored human platelets were transfused into immunodeficient NCG (NOD-Prkdcem26Cd52Il2rgem 26Cd22/NjuCrl) mice. NMN+NAC+AMPKi (NMN 0.5 mM, NAC 5 mM, AMPKi 4 uM) or PBS as a control was added. Human platelet concentrates were stored for 6 days in vitro. They were then labeled with biotin and infused into NCG mice. […] However, platelet clearance was lower in the NMN+NAC+AMPKi group compared to the control group (FIG. 8B). In another group of models, mouse PRP was stored in vitro for 1 day, added with NMN, NAC, AMPK inhibitor or NMN+NAC+AMPK inhibitor (NMN 0.5 mM, NAC 5 mM, AMPKi 4 uM) or PBS as a control. They were then labeled with biotin and infused into WT mice.

[6] = system: human apheresis platelets; assay: Storage quality of human apheresis platelets at room temperature; assay type: cell-based; details: summary statement of the results of the examples; substance used individually
Protocol: as §1
This method can simulate the storage of clinical apheresis platelets in a laboratory environment and can be used for sampling and the sampling is completed. The collected apheresis platelet samples can be used for platelet counting, flow cytometry index detection, protein collection, platelet viability detection, ATP content detection and other purposes.

mouse platelets [7] = assay: Storage of mouse platelet-rich plasma with added palmitoyl carnitine; assay type: cell-based, mice; details: palmitoyl carnitine 2 μM and 10 μM; days 1 and 2 of storage; concentration-dependent trend
Protocol: as §2, with “platelets. Whole blood was obtained from wild-type rats and wild-type mice via abdominal aortic puncture, and platelet-rich plasmas (PRP) were prepared separately for rats and mice. Platelet storage experiments were conducted, with two additional experimental groups each receiving the addition of palmitoyl carnitine at different concentrations (2 μM and 10 μM). Platelet apoptosis ratio, mitochondrial ROS level and changes in mitochondrial membrane potential were measured during storage days 0-4.” for “platelets.”

rat platelets = assay: Storage of rat platelet-rich plasma with added palmitoyl carnitine; assay type: cell-based, rats; details: palmitoyl carnitine 2 μM and 10 μM; days 1 and 2 of storage
Protocol: Whole blood was obtained from wild-type rats and wild-type mice via abdominal aortic puncture, and platelet-rich plasmas (PRP) were prepared separately for rats and mice. Platelet storage experiments were conducted, with two additional experimental groups each receiving the addition of palmitoyl carnitine at different concentrations (2 μM and 10 μM). Platelet apoptosis ratio, mitochondrial ROS level and changes in mitochondrial membrane potential were measured during storage days 0-4.

[8] = system: 293T cells stably transfected with CPT2, CPT2K79Q or CPT2K79R; assay: Electron microscopy of mitochondria in CPT2 and CPT2 mutant stable transfected cell lines treated with palmitoylcarnitine; assay type: cell-based; details: 4 hours
From the text: A plasmid of pLVX-IRES-ZsGreen1 inserted with CPT2K79R, a plasmid of pLVX-IRES-ZsGreen1 inserted with CPT2K79Q, and a plasmid of pLVX-IRES-ZsGreen1 inserted with CPT2 were synthesized by Shanghai Sunny Biotechnology Co., Ltd. Lentiviral transfection, 293T cell infection, and stably transfected cell lines were all carried out by conventional methods.
To further verify the correlation between CPT2K79 acetylation and the accumulation of acylcarnitine, three plasmids were constructed: wild-type CPT2, CPT2K79R mutation, and CPT2K79Q mutation. These three plasmids were packaged into lentiviruses using a three-plasmid system for infecting 293T cells. The exogenous genes were integrated into the host genome, and […] stable transfected cell lines were selected through flow cytometry sorting. CPT2K79R is a CPT2 molecule with the mutation of lysine at position 79 to arginine, abolishing acetylation at position 79. CPT2K79Q is a CPT2 molecule with the mutation of lysine at position 79 to glutamine, simulating acetylation at position 79.
After treating CPT2 and CPT2 mutant stable transfected cell lines with acylcarnitine for 4 hours, the cells were fixed. Then electron microscopy was used to observe the status and structure of mitochondria in different cell lines treated with or without palmitoylcarnitine. […] In one embodiment, there were anomalies in the morphology and arrangement of mitochondrial cristae, and the cristae became disarrayed, fragmented and blurred, with bright areas appearing in the center of the mitochondria, indicating severe damage to the mitochondrial inner membrane structure.

[9] = Dorsomorphin 2HCl 1 uM, 4 uM, AICAR 0.1 uM, 0.5 uM, 4th day of storage, vs control
[10] = added to freshly isolated platelets, second day of platelet storage, compared to the control group
[11] = N-acetylcysteine 5 mM, Mesna 50 uM, glutathione 200 uM, 7th day of storage

## Cl.Cl.c1cc(-c2cnn3cc(-c4ccc(OCCN5CCCCC5)cc4)cnc23)ccn1 [Dorsomorphin 2HCl]
[1]; [9]
  mitochondrial membrane potential: varying degrees of improvement
[2]; [9]
  platelet responsiveness to stimuli: varying degrees of improvement
Mouse platelets [3]
  platelet survival rate: higher
  recovery rate of platelet counts: higher
[4]
  mitochondrial reactive oxygen species levels: varying degrees of improvement
[5]
  apoptosis ratio: varying degrees of improvement
Stored mouse platelets
  survival in vivo of stored platelets: better than controls
[6]
  quality of platelets: significantly improved

## NC(=O)c1cccnc1 [NAM, nicotinamide]
[6]
  quality of platelets: significantly improve

## CCCCCCCCCCCCCCCC(=O)OC(CC(=O)[O-])C[N+](C)(C)C (centres unmarked) [palmitoylcarnitine]
Mouse platelets [7]
  status of mouse platelets: effectively reduced
[1]; [10]
  mitochondrial membrane potential: lower
Rat platelets
  status of rat platelets: did not cause significant changes
[4]; [10]
  levels of mitochondrial reactive oxygen species: higher
[5]; [10]
  apoptosis rates: higher
[8]; CPT2K79Q cell line, low concentrations of palmitoylcarnitine
  effect on the mitochondrial status: particularly pronounced
[8]; CPT2K79R cell line, low-dose palmitoylcarnitine
  effect on the mitochondrial status: little effect
[8]; three cell lines, low concentrations of palmitoylcarnitine, vs group without palmitoylcarnitine
  mitochondria (electron microscopy): significantly worse

## OC(CNc1ccccc1)Cn1c2ccc(Br)cc2c2cc(Br)ccc21 (centres unmarked) [P7C3]
[6]
  quality of platelets: significantly improve

## N[C@@H](CCC(=O)N[C@@H](CS)C(=O)NCC(=O)O)C(=O)O [glutathione]
[1]; [11]
  mitochondrial membrane potential: protected
[2]; [11]
  platelet responsiveness to stimuli: protected
[4]
  accumulation of intracellular reactive oxygen species: reduce
[5]
  apoptosis ratio of platelets: lower

## O=C(NCc1ccncc1)Nc1ccc(S(=O)(=O)N2CC3CCC(C2)O3)cc1 [SBI-797812]
[6]
  quality of platelets: significantly improve

## NC(=O)c1ccc[n+]([C@@H]2O[C@H](COP(=O)([O-])O)[C@@H](O)[C@H]2O)c1 [NMN, nicotinamide mononucleotide]
Mouse platelets [3]
  platelet survival rate: higher
  recovery rate of platelet counts: higher
Stored mouse platelets
  survival in vivo of stored platelets: better than controls
[6]
  quality of platelets: significantly improved

## NC(=O)c1ncn([C@@H]2O[C@H](CO)[C@@H](O)[C@H]2O)c1N [AICAR]
[1]; [9]
  mitochondrial membrane potential: significant decrease
[2]; [9]
  platelet responsiveness to stimuli: detrimental
[4]
  mitochondrial reactive oxygen species levels: elevation
[5]
  apoptosis ratio: increased

## O=S(=O)([O-])CCS.[Na+] [Mesna, sodium 2-mercaptoethane sulfonate]
[1]; [11]
  mitochondrial membrane potential: protected
[2]; [11]
  platelet responsiveness to stimuli: protected
[4]
  accumulation of intracellular reactive oxygen species: reduce
[5]
  apoptosis ratio of platelets: lower

## NC(=O)c1ccc[n+]([C@@H]2O[C@H](CO)[C@@H](O)[C@H]2O)c1 [NR, nicotinamide riboside]
[6]
  quality of platelets: significantly improve

## CC(=O)N[C@@H](CS)C(=O)O [N-acetylcysteine]
[1]; [11]
  mitochondrial membrane potential: protected
[2]; [11]
  platelet responsiveness to stimuli: protected
Mouse platelets [3]
  platelet survival rate: higher
  recovery rate of platelet counts: higher
[4]
  accumulation of intracellular reactive oxygen species: reduce
[5]
  apoptosis ratio of platelets: lower
Stored mouse platelets
  survival in vivo of stored platelets: better than controls
[6]
  quality of platelets: significantly improved
